Assay results from publication PMC11984388, “A brain-accessible peptide modulates stroke inflammatory response and neurotoxicity by targeting BDNF-receptor TrkB-T1 specific interactome” (Theranostics, 2025).
Residues, ends and D or L forms follow the SMILES beside them. *: point of attachment. Biotin = O=C1N[C@H]2[C@H](CS[C@H]2CCCCC(=O)*)N1

How the values were obtained:
[1] = Peptide delivery to brain cortex of undamaged animals; type: in vivo; conditions: 3 nmol/g i.v. (retro-orbital), undamaged male mice, sacrificed 30 min after; Fluorescein Avidin D (Fig S5)
Protocol: (§1) Vehicle (saline), Bio-TMyc or Bio-TT1Ct (3 nmol/g) were retro-orbitally injected in mice one hour after induction of photothrombotic damage or, alternatively, undamaged animals. In the first case, animals were sacrificed 5 h after damage induction while, the second group was sacrificed 30 min after peptide administration. The details of brain fixation and cryoprotection for peptide visualization and/or immunohistochemistry are provided in the Supplementary material. […]
(§2) Finally, the sa mple s were mounted in Prolong Diamond. The images were acquired using an inverted Zeiss LSM 710 laser confocal microscope (Jena, Germany) with a 40x or 63x Plan-Apochromatic oil immersion objective. Images corre spond to single se ctions and were normalized for eac h colour se para tely and process ed for presenta tion with ImageJ (NIH Image) and Fiji.
(§3) Peptide visualization and immunohistochemis tr y in brain cortex
(§4) For peptide visua liz ation in undamaged or damaged brains, animals were deeply anes thetized and intra cardially perfus ed with cold PBS and 4% paraformalde hyde in PBS. Brains were post-fixed in the sa m e fixative at 4°C for 24 h and cryoprote cted in 30% suc ros e for 48 h at 4°C. […]

[2] = Peptide detection in brain cortex after photothrombotic ischemia; type: in vivo; conditions: 3 nmol/g i.v. 1 h after damage, male and female mice sacrificed 5 h post-stroke; Fluorescein Avidin D (Fig 5C)
Protocol: as §1, §2, §3, §4

[3] = tested on: neurons of primary cortical cultures; assay: Neuronal viability (MTT) under NMDA excitotoxicity; type: cell-based, rat
Protocol: Cultures were prepared from cerebral cortex of 18-day-old Wistar rat embryos, both genders indistinctly included. Unless otherwise indicated, glial growth was inhibited after 7 days in vitro (DIVs), experimental treatments taking place after 12 DIVs. These cultures present a high percentage of neurons, combined with glial cells, mostly astrocytes. To induce excitotoxicity, cultures were incubated with NMDA (100 µM) and its co-agonist glycine (10 µM), herein denoted simply as NMDA, which induce a strong excitotoxic response in mature neurons but have no effect on astrocyte viability,[47]. When indicated, cultures were preincubated for 30 min with indicated concentrations of Tat-derived CPPs before NMDA treatment, peptides being kept in the medium along treatment. Total cell or neuronal viability assessment was established by the thiazolyl blue formazan (MTT) reduction assay. Further details are provided as Supplementary material. […]
(§5) skull for 10 min. Br ain injury encompas se s damage to vas cular endothelium, platelet activation, and subs equent microvascula r thrombotic occlus ion of the irradiate d region. The ar eas underneath this ste reotaxic position that result irradiate d ar e the prima ry motor cortex and the prima ry soma tos ens ory cortex (hindlimb and forelimb). Once completed surgery, the incision was sutured, and mice were allowed to recover.
For neuroprote ction experiments, a single dose (3 nmol/g) of peptides TMyc or TT1Ct (> 95% purity; GenScript), solubilized as 2.5 mM solutions in 0.9% NaC l, we retro-orbita lly injected 1 h af ter damage initiation. In order to improve their plas ma sta bility, thes e peptides ar e N- and C-ter modifie d by, respec tive ly, ace tyl and amide groups. Mi c e were not subje cted to other procedures before isc hemia and were naive to drug or peptide treatment. Animals were randomly allocated to the experimental groups and the resea rc hers doing the experiments were blind respec t to treatment. There was not a previous es tima tion of sa mple si z e and experiments were independently car r ied out as indicated. Twenty-four hours af ter damage induction, animals completed the beam walking test and were subs equently sa cri f i ced by cervical disloca tion to meas ure the infarc t volume, as indicated below. Be fore that, brains were se ctioned into se ri al 1-mm-thick coronal sl i ce s using a mouse brain matrix (Stoe lting, Wood Dale, IL, USA), and se ctions were completely sta ine d with 2% TTC at room temperature to visua liz e the cortical infarc ts . For immunohistochemis try, animals were deeply anes thetized 5 or 24 h af ter brain damage and intra cardially perfus ed with cold PBS and 4% paraformalde hyde in PBS as indicated below.
Primary cultures of rat cor tic al neurons to study in vitro excitotoxicity The diss ected cerebral cortices of Wis ta r rat embryos (E18), both genders included, were mechanic ally diss ociated in culture medium (Minimum Esse ntia l Me dium, ME M, Life Technologies) follow ed by se eding of the cell sus pens ion at a dens ity of 1.1x10^6 cells /ml, prepared in the sa m e medium supple me nted with 22.2 mM glucos e, 0.1 mM glutamax, 5% foetal bovine se rum (FBS), 5% donor horse se rum (HS), 100 U/ml penicillin and 100 µg/ml streptomycin. Be fore se eding, the plates were treated overnight at 37°C with 100 µg/ml poly-L-lysine and 4 µg/ml laminin. The cells were incubated at 37°C in an atmosphe re of 5% CO2 and 95% humidity. Generally, glial growth was inhibited af ter 7 days in vitro (DIV s) by adding 10 µM 5 cytos ine β-D-arabinofuranos ide (AraC) and experimental treatments took place af ter 12 DIVs. Excitotoxicity was induced by incubation with NM DA (100 µM) and glycine (10 µM) for the indicated times. As indicated, cultures were preincubated with Tat-derived CP P s before […]
Mi c e had to walk through a narrow beam (1 m × 1 cm × 1 cm) placed 50 cm above the tabletop, going from an aversive stimulus (60-W light bulb) to a black goal box with nes ting material. […]

[4] = Infarct volume after photothrombotic permanent ischemia; type: in vivo, mice; conditions: 24 h, TTC, relative to hemisphere volume
Protocol: Permanent focal ischemia was induced in cerebral cortex of adult male and female mice by microvascular photothrombosis as described with modifications. Brain injury involves vascular endothelium damage and platelet activation, followed by microvascular thrombotic occlusion of a particular region selected for illumination using a stereotaxic frame. Coordinates were +0.2 AP, +2 ML relative to Bregma and damaged area corresponded to primary motor and somatosensory cortex. For neuroprotection, a single dose (3 nmol/g) of peptides TMyc or TT1Ct (see below) was administered 1 h after damage initiation. Further details of the procedures, including measurement of infarct volume and evaluation of motor coordination and balance, are detailed as Supplementary material.
Antibodies, chemica ls and recombinant proteins, cell-penetrating peptides , prime rs , commercial as says , experimental models, recombinant DNAs and software ar e des cribe d in the Table S1, included as Supplementary material.
Animal procedures were performed follow ing Europea n Union Directive 2010/63/ EU and were approved by the CS I C and Comunidad de Ma drid (Ref PROEX 276.6/20) ethics committees.
Hous ing facilities were approved by Comunidad de Ma drid (#ES 280790000188) and conform to official regulations. Animals had sta ndard health and immune sta tus and were looked af ter by profes sional caretake rs daily. Ma l e and female mice were kept in groups of up to five in sta ndard IVC cage s while 1–2 pregnant rats occupied sta ndard cage s, always containing bedding and nes ting materials. Animals were under controlled lighting conditions (12 h light cycles ), relative humidity and temperature. Irradiated food and water were provided ad libitum.
We trie d to minimiz e animal suffering and reduce the number of sa cri f i ced animals .
Mi c e model of isc he mia by microv ascular photothr ombosis to study in vivo excitotoxicity This model of permanent focal isc hemia mimics embolic or thrombotic occlus ion of sm a ll ar ter ie s, which is freque ntly found in human stroke, and caus es a focal brain damage with histological and MR I corre lations to human patterns. The procedure was as previously des cribe d with some modific ations . Ma l e and female Ba lb/c OlaHsd mice (23–31 g; 10–16 weeks of age; Envigo Rms , Spain S.L.) were allowed to acc limatize to our facilities for at least 1 week af ter delivery, before isc hemic induction. They were kept with the sa m e cage mates, and daily examined to chec k their health sta tus . Mi c e were anes thetized with isoflurane (5% for induction, 2% for maintenance in oxygen; Abbot Labora tories , Ma drid, Spain) and then placed in a ste reotaxic frame (Naris hige Group, Tokyo, Ja pan). Body temperature was maintained at 36–37°C using a se l f-regulating heating blanket (Cibertec, Ma drid, Spain). A midline sc al p incision was made, the skull was expos ed, and both Bregma and Lambda points were identifie d.
A cold- light (Sc hott KL 2500 LCD; Schott Glas s, Ma inz, Germany) with a fibre optic bundle of 1.5 mm in diameter was centred using a micromanipula tor on the right side , at 0.2 mm anterior and 2.0 mm lateral (+0.2 AP, +2 ML ) relative to Bregma. […] Five minutes later, the brain was illumina ted (600 lms, 3,000 K) through the intact […]
as §5, with “recover. […]” for “recover.”

[5] = Beam walking test after photothrombotic ischemia; type: in vivo, mice; conditions: contralateral hind paw slips, beam walking 24 h after insult, 3 nmol/g i.v. 1 h after damage, mean ± SEM, n = 10-12

| Molecule | Crossing of the BBB and delivery to cortical cells [1] | Time of peptide detection in brain cortex after administration [2] | Neuronal viability ([3]; CPPs 0: peptide and NMDA (100 µM) at the same time, viability after 4 h of excitotoxicity, relative to untreated cells (100%), mean, n = 4-8 (Fig S4)) [%] | Neuronal viability ([3]; CPPs 30: peptide added 30' post-NMDA (100 µM), viability after 4 h of excitotoxicity, relative to untreated cells (100%), mean, n = 4-8 (Fig S4)) [%] | Neuronal viability ([3]; CPPs 60: peptide added 60' post-NMDA (100 µM), viability after 4 h of excitotoxicity, relative to untreated cells (100%), mean, n = 4-8 (Fig S4)) [%] | Neuronal viability ([3]; dose-response experiment (Fig 3B): peptide 15 µM preincubated 30 min, NMDA 2 h, mean ± SEM, n = 8) [%] | Infarct volume (%) ([4]; female mice, 3 nmol/g i.v. 1 h after damage, mean, n = 9-10) | Infarct volume (%) ([4]; male + female mice, 3 nmol/g i.v. 1 h after damage induction, mean ± SEM, n = 19, n = 20) | Infarct volume (%) ([4]; male mice, 3 nmol/g i.v. 1 h after damage, mean, n = 9-10) | Number of slips ([5]; female mice) | Number of slips ([5]; male mice) |
| --- | --- | --- | --- | --- | --- | --- | --- | --- | --- | --- | --- |
| CC[C@H](C)[C@H](NC(=O)[C@H](CCCCN)NC(=O)[C@H](Cc1c[nH]cn1)NC(=O)[C@H](Cc1ccccc1)NC(=O)[C@H](CC(C)C)NC(=O)[C@@H](NC(=O)[C@H](Cc1ccccc1)NC(=O)[C@@H]1CCCN1C(=O)[C@@H]1CCCN1C(=O)[C@H](CCCNC(=N)N)NC(=O)[C@H](CCCNC(=N)N)NC(=O)[C@H](CCCNC(=N)N)NC(=O)[C@H](CCC(N)=O)NC(=O)[C@H](CCCNC(=N)N)NC(=O)[C@H](CCCNC(=N)N)NC(=O)[C@H](CCCCN)NC(=O)[C@H](CCCCN)NC(=O)[C@H](CCCNC(=N)N)NC(=O)CNC(=O)[C@H](Cc1ccc(O)cc1)NC(=O)CCCC[C@@H]1SC[C@@H]2NC(=O)N[C@@H]21)C(C)C)C(=O)N1CCC[C@H]1C(=O)N[C@@H](CC(C)C)C(=O)N[C@@H](CC(=O)O)C(=O)NCC(N)=O [Bio-TT1Ct] (Biotin-YGRKKRRQRRRPPFVLFHKIPLDG-NH2) | able to cross the BBB and efficiently reach most cortical cells in 30 min | at least 4 h |  |  |  |  |  |  |  |  |  |
| Ac-YGRKKRRQRRRAEEQKLISEEDLLR-NH2 [TMyc, reference compound] |  |  | 36 | 37 | 37 | 13 ± 9 | 15 ± 2 | 17 ± 2 | 20 ± 1 | 5 ± 1 | 10 ± 1 |
